Measurements taken from patent publication US5840918A, “Isoprenyl transferase inhibitors” (Eisai Co., Ltd., priority 1997, dated 1998).
Entries after “also recorded” stand apart in the source; their conditions may differ. Values belong to the compound of their own block, whether it stands above or below them.

Columns and labels:
MIApaca-2 = test: Inhibition of anchorage-independent tumor cell growth, MIApaca-2; assay type: cell-based; conditions: Homo sapiens, MIA PaCa-2, 336 h; MIApaca-2, 14 days, soft agar
Description: (§1) HT1080 is a […] with a N-ras mutation. MIApaca-2 is a pancreatic carcinoma and Sw620 is a colonic carcinoma; each of these has a K-ras mutation. T24 is a bladder carcinoma with a H-ras mutation; and zH1 is a H-ras-transformed NIH/3T3 mouse fibroblast. Additional compounds have been tested and have yielded positive results in these organ-specific or ras-protein specific anchorage-independent tumor cell models.
(§2) Five tumor cell lines were seeded at 600 cells/well (12-well plates) in 0.6 mL of 0.3% Noble agar in culture medium over a bottom agar layer (0.5% Noble agar in culture medium). The culture medium was Dulbecco's modified Eagle's medium (Nissui Pharmaceutical Co., Ltd., Tokyo, Japan), supplemented with 10% heat-inactivated calf serum (GIBCO, Grand Island, N.Y.). A 10 mM stock solution of inhibitor compound PD331 in DMSO was diluted with culture medium to 3× the final concentration and 0.6 mL of the diluted inhibitor solution was overlayed on each well. Controls contained the same amount of DMSO as inhibitor samples. Plates were incubated at 37° C. in 5% CO2 for 14 days. Colonies were counted by replacement of the overlaying medium with 0.6 mL of 2 mg/mL MTT in PBS, incubation for 30 min, and quantitation of scanned photographs. IC50 concentrations for each cell line are shown below in Table 3.

Sw620 = test: Inhibition of anchorage-independent tumor cell growth, Sw620; assay type: cell-based; conditions: Homo sapiens, SW-620, 336 h; Sw620, 14 days, soft agar
Description: as §1, §2

FTase = target: T1, FTase (Bos taurus, UniProt P29702+P49355); test: Inhibition of FTase-mediated prenylation (in vitro prenylation assay); assay type: biochemical; conditions: Table 1; partially purified FTase, 3 μM recombinant H-ras, 440 nM [3H]FPP, 15 min 37° C
T1 construct: bovine brain by inference from the cited Moores et al. 1991
Description: (§3) Nanomolar concentrations of the indicated compounds were sufficient to inhibit farnesylation of ras proteins in vitro. For screening candidate compounds useful for the treatment of ras-associated tumors, the FTase assay is preferred. […] Substitutions which confer GGTase specificity as taught herein also produced potent inhibitors of GGTase.

[1] = test system: zH1 (H-ras-transformed NIH/3T3 mouse fibroblast); test: Inhibition of anchorage-independent tumor cell growth, zH1; assay type: cell-based; conditions: NIH3T3, 336 h, zH1, 14 days, soft agar
Description: as §1, §2

[2] = test system: H-ras (61L) transformed NIH3T3 fibroblast tumors; test: Inhibition of tumor xenograft in mice, Example D (PD331); assay type: in vivo, mouse; conditions: for T/C (%) Volume / Tumor Volume: day 14
Description: Cells were harvested from exponential-phase maintenance cultures (T-225 cm^2 culture flasks, Corning Inc., Corning, N.Y.) with trypsin-EDTA (GIBCO), centrifuged at 160 ×g for 5 min, washed once with 10 mL cold Hank's balanced salt solution (HBSS, GIBCO), and resuspended at a concentration of 1×10^6 cells/mL. Five week old female athymic nude mice were obtained from SLC (3371-8, Kotoummachi, Hamamatsu-shi, Shizuoka 431-11, Japan) and maintained under pathogen-free conditions. […] Inhibitor compound PD331 was suspended in saline containing 2% Tween-80 in a total injection volume of 0.2 mL. Two dosage concentrations were prepared, 0.3 mg/mouse or 1.0 mg/mouse. Compound PD331 was subcutaneously injected daily at the site of tumor cell implantation for 5 consecutive days, starting approximately 8 h after the implantation (day 0). The control group was injected with vehicle only. Body weight and tumor dimensions were measured at days 7, 10, and 14. Tumor volume was estimated by the following calculation: tumor volume =(0.5)(length×width×width). At day 14, each mouse was euthanized with CO2 (g), and each tumor was excised and weighed. The statistical significance was estimated by the Student's T-test.

GGTase = test: Inhibition of GGTase-mediated prenylation (in vitro prenylation assay); assay type: biochemical; conditions: Table 1; partially purified GGTase, 5 μM recombinant H-ras (61L, CAIL), 1 μM [3H] geranylgeranyl diphosphate
Description: as §3

[3] = test system: H-ras farnesylation in H-ras (61L) transformed NIH3T3 fibroblasts; test: Inhibition of H-ras farnesylation in whole cells (Western blot); assay type: cell-based, mouse; conditions: Mus musculus, NIH3T3, 24 h, Table 2
Description: The ability of compounds of the invention to inhibit H-ras farnesylation and rap1 geranylgeranylation in whole cells was determined. H-ras (61L) transformed NIH3T3 fibroblasts were generously provided by C. Der, Univ. N. Carolina. These fibroblasts were treated for 24 h with 50 μM lovastatin (control) or the indicated concentrations of inhibitor. The cells were lysed in 1% NP-40, 5 mM Tris-HCl (pH 8.0), 5 mM EDTA, 0.1 mM N-tosyl-L-phenylalanine chloromethyl ketone, 0.1 mM N-tosyl-L-lysine chloromethyl ketone, and 1 mM phenylmethylsulfonyl fluoride. The lysate was centrifuged (15000×g, 5 min.) and the supernatant was used as a cell extract. […] After transfer to IMMOBILON P™ membrane (Millipore), the blots were probed with LA069 mouse monoclonal antibody to H-ras (Quality Biotech), or rabbit polyclonal antibody to rap1/Krev (Santa Cruz Biotechnology). All Western blots were developed using ECL chemiluminescent reagents (Amersham).

T24 = test: Inhibition of anchorage-independent tumor cell growth, T24; assay type: cell-based; conditions: Homo sapiens, T-24, 336 h; T24, 14 days, soft agar
Description: as §1, §2

HT1080 = test: Inhibition of anchorage-independent tumor cell growth, HT1080; assay type: cell-based; conditions: Homo sapiens, HT-1080, 336 h; HT1080, 14 days, soft agar
Description: as §1, §2

[4] = test system: H-ras (61L) transformed NIH3T3 fibroblast tumors; test: Inhibition of tumor xenograft in mice, Example E (PM061); assay type: in vivo, mouse; conditions: for T/C (%) Volume / Tumor Volume: day 15
Description: H-ras (61L) transformed NIH3T3 fibroblasts were grown in Dulbecco's modified Eagle's medium supplemented with 10% heat-inactivated calf serum. 100 U/mL penicillin, 100 μg/mL streptomycin, and 0.75 mg/mL G418 (GIBCO) and incubated at 37° C. in 5% CO2. Cells were harvested from exponential-phase maintenance cultures (T-225 cm^2 culture flasks, Corning Inc., Corning, N.Y.) with trypsin-EDTA (GIBCO), centrifuged at 160 ×g for 5 min, washed once with 10 mL cold Hank's balanced salt solution (HBSS, GIBCO), and resuspended at a concentration of 1×10^6 cells/mL.
Five week old female athymic nude mice were obtained from SLC (3371-8, Kotoummachi, Hamamatsu-shi, Shizuoka 431-11, Japan) and maintained under pathogen-free conditions. The mice were subcutaneously injected in the lateral flank with 1×10^5 H-ras transformed cells/mouse.
Inhibitor compound PD331 was suspended in saline containing 2% Tween-80 in a total injection volume of 0.2 mL. Two dosage concentrations were prepared, 0.3 mg/mouse or 1.0 mg/mouse. Compound PD331 was subcutaneously injected daily at the site of tumor cell implantation for 5 consecutive days, starting approximately 8 h after the implantation (day 0). The control group was injected with vehicle only. Body weight and tumor dimensions were measured at days 7, 10, and 14. Tumor volume was estimated by the following calculation: tumor volume =(0.5)(length×width×width). At day 14, each mouse was euthanized with CO2 (g), and each tumor was excised and weighed. The statistical significance was estimated by the Student's T-test.
The same in vivo experiment as Example D above was performed, using compound PM061. Instead of 0.3 mg/mouse and 1.0 mg/mouse, three injection concentrations were prepared (0.5 mg/mouse, 1.0 mg/mouse, and 2.0 mg/mouse). Body weight and tumor size were measured at days 7, 10, and 15. Tumors were excised at day 15.

[5] = 0.3 mg/mouse s.c. daily for 5 days
[6] = 1.0 mg/mouse s.c. daily for 5 days

IC50 (MIApaca-2): 19000 nM
IC50 (Sw620): 22000 nM
IC50 (FTase): 11 nM
IC50 (GGTase): 13 nM
IC50 (T24): 300 nM
IC50 (HT1080): 1800 nM
Structure (SMILES): CSCC[C@H](NC(=O)C(/C=C\[C@@H](/C=C/[C@@H](N)CS)C(C)C)Cc1ccccc1)C(=O)O (stereo partly shown) [PD331]
IC50 [1]: 600 nM
T/C (%) Volume [2, 5]: 53.3%
Tumor Volume [2, 5]: 871.28 ± 526.90 µL
T/C (%) Volume [2, 6]: 16.5%
Tumor Volume [2, 6]: 269.55 ± 292.95 µL
weight and volume of tumors versus control group ([2]; every concentration): both the weight and the volume of the tumors from the treated group were less than the weight and volume of tumors from the control group
effect on H-ras tumor growth in mice ([2]; mouse, in vivo): has a significant effect on H-ras tumor growth in mice; also recorded: effectively inhibited the growth of ras-associated tumors in mice
IC50 [3]: 400 nM

IC50 (FTase): 7 nM
IC50 (GGTase): 144 nM
Structure (SMILES): CSCC[C@H](NC(=O)c1cc(C/C=C/C(N)CS)ccc1-c1ccccc1)C(=O)O (stereo partly shown) [PM061]
IC50 [3]: 4800 nM
T/C (%) Volume ([4]; 0.5 mg/mouse s.c.): 90.3%
Tumor Volume ([4]; 0.5 mg/mouse s.c.): 2360.4 ± 645.0 µL
T/C (%) Volume ([4]; 1.0 mg/mouse s.c.): 101.8%
Tumor Volume ([4]; 1.0 mg/mouse s.c.): 2660.3 ± 756.4 µL
T/C (%) Volume ([4]; 2.0 mg/mouse s.c.): 53.6%
Tumor Volume ([4]; 2.0 mg/mouse s.c.): 1400.6 ± 703.2 µL
tumor volume as % of the tumor volume in the control mouse ([4]; injection of 2.0 mg): 53.2%
effect on H-ras tumor growth in mice ([4]; mouse, in vivo): had a significant effect on H-ras tumor growth in mice; also recorded: effectively inhibited the growth of ras-associated tumors in mice
